The target in assay [1] is T1, Mitogen-activated protein kinase 15 (Homo sapiens) (UniProt Q8TD08).
T1 sequence (whole entry): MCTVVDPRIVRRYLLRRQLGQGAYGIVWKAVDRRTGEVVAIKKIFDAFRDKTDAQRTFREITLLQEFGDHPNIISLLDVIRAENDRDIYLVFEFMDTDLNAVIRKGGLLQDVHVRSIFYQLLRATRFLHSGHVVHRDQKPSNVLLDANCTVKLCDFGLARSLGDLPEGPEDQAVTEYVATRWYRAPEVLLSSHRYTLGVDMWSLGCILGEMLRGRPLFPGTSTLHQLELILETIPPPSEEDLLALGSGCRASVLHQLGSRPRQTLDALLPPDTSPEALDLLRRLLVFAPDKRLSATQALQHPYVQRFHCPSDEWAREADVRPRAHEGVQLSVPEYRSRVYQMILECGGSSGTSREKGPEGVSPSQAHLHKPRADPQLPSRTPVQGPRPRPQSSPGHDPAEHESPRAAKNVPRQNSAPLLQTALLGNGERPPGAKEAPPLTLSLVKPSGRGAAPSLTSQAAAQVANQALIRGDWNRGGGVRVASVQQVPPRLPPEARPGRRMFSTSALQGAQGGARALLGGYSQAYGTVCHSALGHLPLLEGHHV
To be noted: at 10 µM.

Assay [2] concerns the target Mitogen-activated protein kinase 10 (Homo sapiens, UniProt P53779). Description: Selectivity interaction (Kinase panel (DSF assay)) EUB0001558a MAPK10.
Assay [3] has as its target Tyrosine-protein kinase Fer (Homo sapiens) (UniProt P16591). Description: Selectivity interaction (KinomeScan (DiscoverX)) EUB0001079a FER. As to conditions: at 1 µM.
Assay [4] addresses T2, Cyclin-dependent kinase 11A (Homo sapiens) (UniProt Q9UQ88).
T2 sequence (whole entry): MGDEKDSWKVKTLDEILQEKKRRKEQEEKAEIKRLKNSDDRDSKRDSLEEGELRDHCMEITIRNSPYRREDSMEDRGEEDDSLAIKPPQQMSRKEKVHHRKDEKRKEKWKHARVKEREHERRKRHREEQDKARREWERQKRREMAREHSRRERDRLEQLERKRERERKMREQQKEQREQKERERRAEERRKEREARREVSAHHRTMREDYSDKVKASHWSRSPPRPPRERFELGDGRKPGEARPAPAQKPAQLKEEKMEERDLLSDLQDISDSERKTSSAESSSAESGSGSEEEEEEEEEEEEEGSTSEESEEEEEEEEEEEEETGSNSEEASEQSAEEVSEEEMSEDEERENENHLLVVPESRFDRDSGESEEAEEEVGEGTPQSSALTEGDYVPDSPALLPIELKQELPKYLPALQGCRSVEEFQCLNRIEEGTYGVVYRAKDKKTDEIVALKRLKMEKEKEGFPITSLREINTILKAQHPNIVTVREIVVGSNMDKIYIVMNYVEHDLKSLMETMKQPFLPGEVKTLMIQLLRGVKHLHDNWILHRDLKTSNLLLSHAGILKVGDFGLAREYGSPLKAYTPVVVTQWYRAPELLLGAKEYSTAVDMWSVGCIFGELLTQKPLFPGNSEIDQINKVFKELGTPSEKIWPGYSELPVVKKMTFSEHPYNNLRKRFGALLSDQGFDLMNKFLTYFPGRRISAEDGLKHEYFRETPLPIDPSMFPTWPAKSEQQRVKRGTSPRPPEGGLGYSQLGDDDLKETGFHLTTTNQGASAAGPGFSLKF
The experiment in a line: Selectivity interaction (KinomeScan (DiscoverX)) EUB0000092b CDK11A. As to conditions: at 10 µM.

Assay [5] deals with Macrophage colony-stimulating factor 1 receptor (Homo sapiens) (UniProt P07333). The experiment in a line: Selectivity interaction (KinomeScan (DiscoverX)) EUB0000655a CSF1R. As to conditions: at 10 µM.
Sequence of Macrophage colony-stimulating factor 1 receptor (Homo sapiens) (P07333 whole entry): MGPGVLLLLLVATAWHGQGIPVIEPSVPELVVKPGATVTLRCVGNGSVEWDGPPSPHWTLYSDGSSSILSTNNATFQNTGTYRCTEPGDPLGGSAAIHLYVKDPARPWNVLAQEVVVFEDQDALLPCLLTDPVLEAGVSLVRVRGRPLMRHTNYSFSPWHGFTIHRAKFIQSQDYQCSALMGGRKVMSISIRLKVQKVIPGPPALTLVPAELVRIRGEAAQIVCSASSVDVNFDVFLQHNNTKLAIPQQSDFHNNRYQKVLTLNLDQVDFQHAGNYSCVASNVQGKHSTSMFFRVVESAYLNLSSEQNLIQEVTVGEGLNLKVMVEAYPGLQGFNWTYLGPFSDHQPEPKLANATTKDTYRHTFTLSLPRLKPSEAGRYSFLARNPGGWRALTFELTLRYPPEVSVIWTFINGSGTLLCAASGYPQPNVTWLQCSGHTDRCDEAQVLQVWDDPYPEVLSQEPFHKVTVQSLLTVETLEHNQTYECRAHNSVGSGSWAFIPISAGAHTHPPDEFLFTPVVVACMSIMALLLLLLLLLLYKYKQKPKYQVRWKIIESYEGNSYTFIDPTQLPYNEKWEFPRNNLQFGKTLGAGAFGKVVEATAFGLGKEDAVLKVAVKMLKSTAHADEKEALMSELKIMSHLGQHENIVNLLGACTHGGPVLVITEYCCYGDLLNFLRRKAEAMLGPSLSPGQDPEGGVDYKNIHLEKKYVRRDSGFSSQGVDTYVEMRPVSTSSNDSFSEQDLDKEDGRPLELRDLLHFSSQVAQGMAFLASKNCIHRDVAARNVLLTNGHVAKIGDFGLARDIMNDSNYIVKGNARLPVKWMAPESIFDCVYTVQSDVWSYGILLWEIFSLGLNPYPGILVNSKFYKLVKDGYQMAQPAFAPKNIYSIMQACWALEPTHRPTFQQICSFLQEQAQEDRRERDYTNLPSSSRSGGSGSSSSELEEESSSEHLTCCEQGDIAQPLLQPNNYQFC
Assay [6] concerns the target Tyrosine-protein kinase JAK1 (Homo sapiens, UniProt P23458). Description: Selectivity interaction (KinomeScan (DiscoverX)) EUB0000695a JAK1. To be noted: at 100 nM.
For assay [7], the target named is T3, cGMP-dependent protein kinase 1 (Homo sapiens) (UniProt Q13976).
T3 sequence (whole entry): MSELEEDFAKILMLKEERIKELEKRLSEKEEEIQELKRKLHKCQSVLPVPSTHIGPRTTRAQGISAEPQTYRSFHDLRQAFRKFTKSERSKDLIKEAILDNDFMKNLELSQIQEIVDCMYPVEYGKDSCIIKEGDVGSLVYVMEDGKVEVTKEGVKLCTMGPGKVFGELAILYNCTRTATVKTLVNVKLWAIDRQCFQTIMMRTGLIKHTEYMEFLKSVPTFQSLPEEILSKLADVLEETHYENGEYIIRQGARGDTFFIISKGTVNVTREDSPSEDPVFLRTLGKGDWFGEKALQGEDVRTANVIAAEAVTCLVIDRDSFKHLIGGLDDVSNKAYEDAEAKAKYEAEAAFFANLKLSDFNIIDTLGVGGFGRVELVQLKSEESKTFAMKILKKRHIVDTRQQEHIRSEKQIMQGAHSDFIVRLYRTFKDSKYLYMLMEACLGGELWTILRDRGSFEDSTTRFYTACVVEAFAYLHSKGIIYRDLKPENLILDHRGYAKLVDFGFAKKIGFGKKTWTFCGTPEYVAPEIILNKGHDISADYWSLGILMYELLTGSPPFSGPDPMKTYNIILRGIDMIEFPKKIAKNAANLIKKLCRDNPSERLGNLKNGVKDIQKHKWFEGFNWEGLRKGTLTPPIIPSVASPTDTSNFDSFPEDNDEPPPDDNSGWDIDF
The experiment in a line: Selectivity interaction (KinomeScan (DiscoverX)) EUB0000695a PRKG1. As to conditions: at 100 nM.

The target in assay [8] is Macrophage colony-stimulating factor 1 receptor (Homo sapiens) (UniProt P07333). The experiment in a line: Selectivity interaction (Kinase panel (Z-LYTE Assay)) EUB0001632a CSF1R. To be noted: at 10 µM.
The target in assay [9] is Mitogen-activated protein kinase 14 (Homo sapiens, UniProt Q16539). The experiment in a line: Selectivity interaction (KinomeScan (DiscoverX)) EUB0000229b MAPK14. As to conditions: at 10 µM.
Sequence of Mitogen-activated protein kinase 14 (Q16539 whole entry): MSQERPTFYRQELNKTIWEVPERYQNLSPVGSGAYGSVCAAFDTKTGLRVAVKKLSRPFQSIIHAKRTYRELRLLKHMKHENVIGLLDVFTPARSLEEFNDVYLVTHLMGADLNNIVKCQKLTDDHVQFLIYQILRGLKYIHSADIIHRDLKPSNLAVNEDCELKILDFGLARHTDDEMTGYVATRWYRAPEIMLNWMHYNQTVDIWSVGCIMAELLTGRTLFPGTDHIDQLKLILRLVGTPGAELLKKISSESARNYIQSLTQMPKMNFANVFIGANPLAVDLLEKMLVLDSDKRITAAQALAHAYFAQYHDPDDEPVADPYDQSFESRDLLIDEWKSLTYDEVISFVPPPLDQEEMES
Assay [10] concerns the target Tyrosine-protein kinase Fer (Homo sapiens) (UniProt P16591). Description: Selectivity interaction (KinomeScan (DiscoverX)) EUB0000595a FER. As to conditions: at 10 µM.
Assay [11] deals with Serine/threonine-protein kinase PRP4 homolog (Homo sapiens) (UniProt Q13523). Description: Selectivity interaction (Kinase panel (KiNativ target engagement assay in Jurkat cells)) EUB0001635a PRPF4. The class given is cell-based. As to conditions: Selectivity number of off-targets 0.0, Selectivity number of targets 233.0, Source Knowledge https://www.sciencedirect.com/science/article/pii/S2451945619300674?via%3Dihub, at 1 µM.
Sequence of Serine/threonine-protein kinase PRP4 homolog (Homo sapiens) (Q13523 whole entry): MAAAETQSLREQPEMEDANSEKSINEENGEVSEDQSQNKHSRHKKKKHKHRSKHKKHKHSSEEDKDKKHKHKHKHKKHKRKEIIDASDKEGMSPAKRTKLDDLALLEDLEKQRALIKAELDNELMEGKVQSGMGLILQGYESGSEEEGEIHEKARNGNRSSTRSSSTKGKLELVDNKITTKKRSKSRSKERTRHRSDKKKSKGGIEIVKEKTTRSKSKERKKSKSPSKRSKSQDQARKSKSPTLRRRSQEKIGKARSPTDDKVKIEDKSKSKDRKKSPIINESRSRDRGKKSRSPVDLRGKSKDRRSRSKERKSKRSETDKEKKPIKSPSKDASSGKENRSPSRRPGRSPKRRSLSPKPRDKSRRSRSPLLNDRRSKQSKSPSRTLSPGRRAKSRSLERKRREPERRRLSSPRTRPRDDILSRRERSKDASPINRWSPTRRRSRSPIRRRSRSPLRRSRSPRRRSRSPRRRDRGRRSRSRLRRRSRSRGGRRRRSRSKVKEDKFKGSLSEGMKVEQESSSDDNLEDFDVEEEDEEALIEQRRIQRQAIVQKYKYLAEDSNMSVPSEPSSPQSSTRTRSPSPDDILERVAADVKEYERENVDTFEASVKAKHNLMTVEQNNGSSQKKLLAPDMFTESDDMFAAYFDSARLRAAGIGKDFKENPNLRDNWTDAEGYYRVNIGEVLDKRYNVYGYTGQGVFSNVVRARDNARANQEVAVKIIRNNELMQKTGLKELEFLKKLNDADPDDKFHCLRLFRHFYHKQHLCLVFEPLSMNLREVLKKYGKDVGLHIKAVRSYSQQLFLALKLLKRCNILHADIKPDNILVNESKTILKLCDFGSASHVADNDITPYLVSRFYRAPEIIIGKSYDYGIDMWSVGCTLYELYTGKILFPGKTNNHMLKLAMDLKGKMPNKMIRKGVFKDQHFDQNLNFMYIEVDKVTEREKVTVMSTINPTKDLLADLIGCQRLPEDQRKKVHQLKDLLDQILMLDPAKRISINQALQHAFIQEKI

The results in this text go back to ChEMBL document CHEMBL5465560, “Selectivity Literature for EUbOPEN Chemogenomic Library” (2024).

The structures appear in SMILES notation.

Sequence of Tyrosine-protein kinase Fer (Homo sapiens) (P16591 whole entry, looked up): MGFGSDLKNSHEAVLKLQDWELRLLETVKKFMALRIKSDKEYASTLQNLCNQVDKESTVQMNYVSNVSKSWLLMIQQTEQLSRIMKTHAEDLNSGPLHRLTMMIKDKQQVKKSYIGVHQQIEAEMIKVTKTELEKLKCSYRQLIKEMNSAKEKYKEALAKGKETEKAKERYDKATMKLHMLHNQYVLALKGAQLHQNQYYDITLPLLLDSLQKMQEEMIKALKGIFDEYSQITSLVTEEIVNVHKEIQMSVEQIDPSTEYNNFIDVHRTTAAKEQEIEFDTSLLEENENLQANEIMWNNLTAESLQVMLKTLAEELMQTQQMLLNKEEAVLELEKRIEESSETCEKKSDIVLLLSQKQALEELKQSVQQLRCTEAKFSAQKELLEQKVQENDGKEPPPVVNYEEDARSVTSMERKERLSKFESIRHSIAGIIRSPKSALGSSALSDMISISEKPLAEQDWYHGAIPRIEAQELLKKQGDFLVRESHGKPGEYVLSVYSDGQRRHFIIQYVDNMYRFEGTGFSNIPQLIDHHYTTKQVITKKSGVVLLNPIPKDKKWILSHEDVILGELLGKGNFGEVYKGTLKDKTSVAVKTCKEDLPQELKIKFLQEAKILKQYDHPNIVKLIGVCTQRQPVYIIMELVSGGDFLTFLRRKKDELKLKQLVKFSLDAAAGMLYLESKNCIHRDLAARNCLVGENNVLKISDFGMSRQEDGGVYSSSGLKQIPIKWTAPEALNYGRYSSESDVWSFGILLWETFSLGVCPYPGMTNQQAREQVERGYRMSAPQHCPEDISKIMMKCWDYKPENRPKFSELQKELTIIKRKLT
Sequence of Mitogen-activated protein kinase 10 (P53779 whole entry): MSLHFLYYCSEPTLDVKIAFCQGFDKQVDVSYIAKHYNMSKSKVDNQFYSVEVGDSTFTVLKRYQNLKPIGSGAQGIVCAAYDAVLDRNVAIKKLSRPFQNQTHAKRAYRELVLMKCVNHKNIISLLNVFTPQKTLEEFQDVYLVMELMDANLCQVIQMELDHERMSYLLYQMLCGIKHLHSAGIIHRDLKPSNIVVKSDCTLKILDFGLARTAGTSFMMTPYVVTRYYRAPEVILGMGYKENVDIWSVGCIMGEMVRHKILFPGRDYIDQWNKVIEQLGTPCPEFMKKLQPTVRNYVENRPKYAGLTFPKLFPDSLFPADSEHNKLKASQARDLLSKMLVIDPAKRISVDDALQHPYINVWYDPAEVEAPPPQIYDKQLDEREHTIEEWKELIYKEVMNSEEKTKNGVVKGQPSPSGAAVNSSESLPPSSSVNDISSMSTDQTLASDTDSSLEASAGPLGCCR
Sequence of Tyrosine-protein kinase JAK1 (P23458 whole entry): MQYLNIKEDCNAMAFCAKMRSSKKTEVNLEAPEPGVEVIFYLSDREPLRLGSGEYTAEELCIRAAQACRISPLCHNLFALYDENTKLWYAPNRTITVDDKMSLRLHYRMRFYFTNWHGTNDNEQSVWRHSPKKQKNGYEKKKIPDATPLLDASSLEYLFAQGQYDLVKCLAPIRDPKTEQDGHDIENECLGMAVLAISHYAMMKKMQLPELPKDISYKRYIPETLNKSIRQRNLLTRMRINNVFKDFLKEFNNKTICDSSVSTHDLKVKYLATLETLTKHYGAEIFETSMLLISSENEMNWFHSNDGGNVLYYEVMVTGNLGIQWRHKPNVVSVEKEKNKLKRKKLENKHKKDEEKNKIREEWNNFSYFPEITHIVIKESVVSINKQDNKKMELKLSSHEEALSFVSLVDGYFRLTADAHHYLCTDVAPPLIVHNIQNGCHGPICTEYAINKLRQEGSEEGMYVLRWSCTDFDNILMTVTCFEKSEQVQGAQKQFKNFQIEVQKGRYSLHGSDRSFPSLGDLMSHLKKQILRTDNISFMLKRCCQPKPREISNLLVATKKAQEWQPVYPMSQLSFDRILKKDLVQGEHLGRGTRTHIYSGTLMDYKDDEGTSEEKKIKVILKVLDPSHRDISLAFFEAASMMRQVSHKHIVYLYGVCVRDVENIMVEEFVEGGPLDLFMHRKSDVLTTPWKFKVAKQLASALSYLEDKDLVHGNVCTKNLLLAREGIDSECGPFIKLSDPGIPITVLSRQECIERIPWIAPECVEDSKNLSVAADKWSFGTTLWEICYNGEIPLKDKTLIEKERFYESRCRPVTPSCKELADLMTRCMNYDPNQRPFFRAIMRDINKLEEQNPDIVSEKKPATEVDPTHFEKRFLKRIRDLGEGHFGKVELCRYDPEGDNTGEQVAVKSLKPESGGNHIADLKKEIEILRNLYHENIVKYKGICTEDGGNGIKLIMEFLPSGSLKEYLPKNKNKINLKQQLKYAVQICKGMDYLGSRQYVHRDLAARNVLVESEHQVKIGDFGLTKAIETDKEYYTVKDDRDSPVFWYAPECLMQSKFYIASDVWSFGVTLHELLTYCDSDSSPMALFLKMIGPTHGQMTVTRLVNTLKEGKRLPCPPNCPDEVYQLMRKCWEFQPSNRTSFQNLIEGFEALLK

In [1], `Cc1cc([C@@H](C)Nc2ccccc2C(=O)O)c2nc(N3CCOCC3)cc(=O)n2c1` [AZD-6482] returned a % of control of 100%.
The compound `CC(C)(O)[C@H](F)CN1Cc2cc(NC(=O)c3cnn4cccnc34)c(N3CCOCC3)cc2C1=O` returned a dTM in assay [2] of 1.5 K.
Regarding `Nc1cnc(N2CCc3cc(S(=O)(=O)Nc4c(F)cc(Cl)cc4F)cc(N4CCCC4=O)c32)nc1` [TP-020n], the % of control in [3] is 100%.
As for `CCC(=O)N1CCN(c2ccc(-n3c(=O)ccc4cnc5ccc(-c6cnc7ccccc7c6)cc5c43)cc2C(F)(F)F)CC1`, the % of control in assay [4] was 100%.
As for `CN(C)CCOc1ccc(-c2nc(-c3ccncc3)c(-c3ccc4c(c3)CC/C4=N\O)[nH]2)cc1`, in assay [5], the % of control was 86%.
Turning to `Cc1cc(F)c(C(=O)Nc2cccc(-c3nncn3C(C)C)n2)cc1-n1cnc(C2CC2)c1`, the % of control is 93% in assay [6] and 100% in [7].
In assay [8], `Cn1cc(-n2cnc3c(NCc4nc5cc(Cl)c(Cl)cc5[nH]4)nc(N4CCOCC4)nc32)cn1` returned a % of control of 20%.
For `COc1cc(N(C)c2ccnc3ccc(C(F)(F)F)cc23)cc(OC)c1OC`, in assay [9], the % binding amounted to 81%.
Compound `COCC(=O)NC/C=C/c1ccc2ncnc(Nc3ccc(Oc4ccc(C)nc4)c(C)c3)c2c1` [CP-724714] yielded a % of control in assay [10] of 100%.
Take `C=CC(=O)Nc1ccc(C(=O)Nc2[nH]nc3c2CN(C(=O)N[C@H](CN(C)C)c2ccccc2)C3(C)C)cc1`: in [11], the % of engagement was -2.9%.
